Assay results as given in ChEMBL document CHEMBL1201862, “PubChem BioAssay data set” (2004).
Counter-ions that a name gives are not always drawn.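 Test compounds were applied to cells in 96-well plates for 48 hours at 5 doses. The concentration for 50% growth inhibition is given as GI50.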 Activity calls are given as the source filed them. No stated cut-off is given here; in the data, active = GI50 up to about 1.1 µM and inactive = higher.

Key:
Test in all cases: NCI anticancer screen, dose series, 48 h
A549 = test system: A549
ACHN = test system: ACHN
EKVX = test system: EKVX
HL-60 = test system: HL-60
HOP-62 = test system: HOP-62
LOX IMVI = test system: LOX IMVI
M14 = test system: M14
Malme-3M = test system: Malme-3M
NCI-H460 = test system: NCI-H460
OVCAR-4 = test system: OVCAR-4
OVCAR-5 = test system: OVCAR-5
SF-268 = test system: SF-268
SF-295 = test system: SF-295
SK-MEL-28 = test system: SK-MEL-28
SK-MEL-2 = test system: SK-MEL-2
SW-620 = test system: SW-620
T47D = test system: T47D
TK-10 = test system: TK-10
UACC-62 = test system: UACC-62
PC-3 = test system: PC-3

Measured: GI50

O=P(O)(O)OC1O[C@H](CO)[C@H](O)[C@H](O)[C@H]1O (stereo partly specified)
inactive: A549 > 100 µM | ACHN > 100 µM | EKVX > 100 µM | HL-60 > 100 µM | HOP-62 > 100 µM | LOX IMVI > 100 µM | M14 > 100 µM | Malme-3M > 100 µM | NCI-H460 > 100 µM | OVCAR-4 > 100 µM | OVCAR-5 > 100 µM | SF-268 > 100 µM | SF-295 > 100 µM | SK-MEL-28 > 100 µM | SK-MEL-2 > 100 µM | SW-620 > 100 µM | T47D > 100 µM | TK-10 > 100 µM | UACC-62 > 100 µM

Cc1cccc2c1c(=O)c1c(O)cc(O)cc1n2C
inactive: A549 > 100 µM | ACHN > 100 µM | EKVX 85.1 µM | HL-60 > 100 µM | HOP-62 > 100 µM | LOX IMVI 82 µM | M14 55 µM | Malme-3M > 100 µM | NCI-H460 > 100 µM | OVCAR-4 > 100 µM | OVCAR-5 > 100 µM | PC-3 > 100 µM | SF-268 > 100 µM | SF-295 89.1 µM | SK-MEL-28 > 100 µM | SK-MEL-2 > 100 µM | SW-620 > 100 µM | TK-10 > 100 µM | UACC-62 90.6 µM

CC12CCC(=O)C=C1CCC1C2C(O)CC2(C)C(c3csc(N)n3)CCC12.O=S(=O)(O)c1ccc(Br)cc1 (stereo unspecified)
inactive: A549 > 100 µM | ACHN > 100 µM | EKVX > 100 µM | HOP-62 > 100 µM | LOX IMVI > 100 µM | M14 > 100 µM | Malme-3M > 100 µM | OVCAR-4 > 100 µM | OVCAR-5 > 100 µM | PC-3 > 100 µM | SF-268 > 100 µM | SF-295 > 100 µM | SK-MEL-28 > 100 µM | SK-MEL-2 > 100 µM | SW-620 > 100 µM | T47D > 100 µM | TK-10 > 100 µM | UACC-62 > 100 µM

O=S1(=O)c2ccccc2NC(=S)CC1c1ccccc1 (stereo unspecified)
inactive: A549 > 100 µM | ACHN > 100 µM | EKVX > 100 µM | HL-60 > 100 µM | HOP-62 > 100 µM | LOX IMVI > 100 µM | M14 > 100 µM | Malme-3M > 100 µM | NCI-H460 > 100 µM | OVCAR-4 > 100 µM | OVCAR-5 > 100 µM | PC-3 > 100 µM | SF-268 > 100 µM | SF-295 26.3 µM | SK-MEL-28 > 100 µM | T47D > 100 µM | TK-10 > 100 µM | UACC-62 > 100 µM

CCOC(=O)C1CCCCc2sc(N)c(C#N)c21 (stereo unspecified)
inactive: A549 > 100 µM | ACHN > 100 µM | EKVX > 100 µM | HL-60 > 100 µM | HOP-62 > 100 µM | M14 > 100 µM | Malme-3M 71.1 µM | NCI-H460 > 100 µM | OVCAR-5 > 100 µM | PC-3 > 100 µM | SK-MEL-28 > 100 µM | SK-MEL-2 > 100 µM | SW-620 > 100 µM | TK-10 > 100 µM | UACC-62 > 100 µM

N/N=C(\N)Nc1cccc2ccccc12
inactive: A549 > 100 µM | ACHN > 100 µM | EKVX > 100 µM | HL-60 > 100 µM | HOP-62 > 100 µM | M14 > 100 µM | Malme-3M > 100 µM | NCI-H460 > 100 µM | OVCAR-4 > 100 µM | OVCAR-5 > 100 µM | SF-268 > 100 µM | SF-295 > 100 µM | SK-MEL-28 > 100 µM | SW-620 > 100 µM | T47D > 100 µM | TK-10 > 100 µM | UACC-62 > 100 µM

CC1(C)O[C@@H](CP(c2ccccc2)c2ccccc2)[C@H](CP(c2ccccc2)c2ccccc2)O1
inactive: A549 2.93 µM | ACHN 15.2 µM | EKVX 6.38 µM | HOP-62 15.1 µM | LOX IMVI 1.82 µM | M14 5.94 µM | Malme-3M 5.83 µM | NCI-H460 4.03 µM | OVCAR-4 9.08 µM | OVCAR-5 8.81 µM | SF-268 5.96 µM | SF-295 5.62 µM | SK-MEL-28 12.3 µM | SW-620 17.2 µM | T47D 3.76 µM | TK-10 14.2 µM

O=C(C(Cl)=C(N1CCOCC1)N1CCOCC1)C(Cl)Cl
inactive: A549 > 100 µM | ACHN > 100 µM | EKVX > 100 µM | HL-60 > 100 µM | HOP-62 > 100 µM | LOX IMVI > 100 µM | M14 > 100 µM | Malme-3M > 100 µM | NCI-H460 > 100 µM | OVCAR-4 > 100 µM | PC-3 > 100 µM | SF-268 > 100 µM | SK-MEL-28 > 100 µM | SW-620 > 100 µM | T47D > 100 µM | TK-10 > 100 µM | UACC-62 > 100 µM

CCOC(=O)c1nc2ccccc2nc1Nc1ccc(Cl)c(Cl)c1
inactive: A549 59.4 µM | ACHN 76.7 µM | EKVX 60.5 µM | HL-60 30.8 µM | HOP-62 30.4 µM | M14 57.8 µM | Malme-3M 16.2 µM | NCI-H460 11 µM | OVCAR-4 27.9 µM | OVCAR-5 > 100 µM | SF-268 37.6 µM | SK-MEL-28 > 100 µM | SK-MEL-2 89.7 µM | T47D 60.8 µM | TK-10 31.4 µM | UACC-62 25.6 µM

COc1cc(COC(=O)N2CCC2C(=O)O)c([N+](=O)[O-])cc1OC (stereo unspecified)
inactive: A549 > 100 µM | ACHN > 100 µM | EKVX > 100 µM | HL-60 > 100 µM | HOP-62 > 100 µM | M14 > 100 µM | Malme-3M > 100 µM | NCI-H460 > 100 µM | OVCAR-5 > 100 µM | PC-3 > 100 µM | SF-268 > 100 µM | SF-295 > 100 µM | SK-MEL-28 > 100 µM | SW-620 > 100 µM | T47D > 100 µM | TK-10 > 100 µM | UACC-62 > 100 µM

CN(C(=O)[C@H](NC(=O)OCc1ccccc1)c1ccccc1)C1CCCCC1N1CCCC1 (stereo partly specified)
inactive: A549 > 100 µM | ACHN > 100 µM | EKVX > 100 µM | HOP-62 > 100 µM | LOX IMVI 77.6 µM | M14 23.4 µM | Malme-3M 48.4 µM | NCI-H460 40.6 µM | OVCAR-4 51.4 µM | OVCAR-5 > 100 µM | PC-3 69.7 µM | SF-268 62.4 µM | SF-295 > 100 µM | SK-MEL-28 > 100 µM | SK-MEL-2 > 100 µM | SW-620 > 100 µM | T47D > 100 µM | TK-10 74.6 µM | UACC-62 > 100 µM

O=C(O)C1C2CC3C(OC(=O)C31)C2Br (stereo unspecified)
inactive: A549 > 100 µM | ACHN > 100 µM | EKVX > 100 µM | HOP-62 > 100 µM | LOX IMVI > 100 µM | M14 > 100 µM | Malme-3M > 100 µM | NCI-H460 > 100 µM | OVCAR-4 > 100 µM | OVCAR-5 > 100 µM | PC-3 > 100 µM | SF-268 > 100 µM | SF-295 > 100 µM | SK-MEL-28 > 100 µM | SK-MEL-2 > 100 µM | SW-620 > 100 µM | T47D > 100 µM | TK-10 > 100 µM | UACC-62 > 100 µM

COc1cc(C(c2ccc3c(c2)OCO3)C2SCCCS2)cc(OC)c1OC (stereo unspecified)
inactive: A549 4.22 µM | ACHN 5.52 µM | EKVX 2.79 µM | HOP-62 3.03 µM | M14 3.6 µM | Malme-3M 3.36 µM | NCI-H460 1.58 µM | OVCAR-4 6.65 µM | OVCAR-5 4.81 µM | PC-3 3.6 µM | SF-268 6.21 µM | SF-295 1.94 µM | SK-MEL-28 4.91 µM | SK-MEL-2 77.4 µM | SW-620 3.11 µM | T47D 3.56 µM | TK-10 5.2 µM | UACC-62 2.75 µM

CC(C)OC(=O)NCCn1cc(-c2ccccc2)nn1
inactive: A549 > 100 µM | ACHN > 100 µM | EKVX > 100 µM | HL-60 > 100 µM | HOP-62 > 100 µM | LOX IMVI > 100 µM | M14 > 100 µM | Malme-3M > 100 µM | NCI-H460 > 100 µM | OVCAR-4 > 100 µM | OVCAR-5 > 100 µM | PC-3 > 100 µM | SF-268 > 100 µM | SF-295 > 100 µM | SK-MEL-28 > 100 µM | SK-MEL-2 > 100 µM | TK-10 > 100 µM

COc1cc(/C=C/c2ccc(OC)c(OC)c2)cc(OC)c1 [(E)-3,4,3',5'-TETRAMETHOXYSTILBENE]
inactive: A549 37.8 µM | ACHN 30.5 µM | EKVX 39.9 µM | HOP-62 63.7 µM | LOX IMVI 19.9 µM | M14 28.1 µM | Malme-3M 49.2 µM | NCI-H460 22.2 µM | OVCAR-4 53.2 µM | OVCAR-5 39.8 µM | PC-3 62.7 µM | SF-268 39.5 µM | SF-295 22.2 µM | SK-MEL-28 36.2 µM | SK-MEL-2 32 µM | SW-620 28.7 µM | T47D 23.6 µM | TK-10 56.1 µM | UACC-62 19.8 µM

O=C(OCCN1CCCCCC1)C(c1ccsc1)C1CCCCC1 (stereo unspecified) [CETIEDIL CITRATE]
inactive: A549 19.4 µM | ACHN 17.1 µM | EKVX 17.1 µM | HL-60 24.5 µM | HOP-62 15.1 µM | LOX IMVI 17.1 µM | M14 17.3 µM | Malme-3M 14.4 µM | NCI-H460 16.2 µM | OVCAR-5 17.3 µM | PC-3 18.4 µM | SF-268 17.6 µM | SF-295 17.9 µM | SK-MEL-28 20.3 µM | SW-620 16.6 µM | T47D 3.28 µM | TK-10 16 µM
